Test results: patent US20250319206A1, “CRISPR/CAS GENE EDITING OF NEH4 AND/OR NEH5 DOMAINS IN NRF2” (Christina Care Gene Editing Institute, Inc., priority 2024, published 2025)

Experiments:
Format in all cases: cell-based, Human
NRF2 gene = NRF2 gene editing by Sanger sequencing/DECODR in A549 cells; conditions: 72 hours after transfection
From the text: FIG. 4A-C: Lung adenocarcinoma cells targeting Exon 3, 4, 5 of NRF2 and assessment of chemotherapy response. (FIG. 4A) A549 cells were transfected with each respective gRNA. Genomic DNA from each cell population was isolated and amplified across exon 3, 4 or 5 of the NRF2 gene. Amplicons were sanger sequenced and analyzed for indels at the CRISPR target site. The graph presents the total editing efficiency listed as Indel and frameshifting indel % listed as FS. (FIG. 4B) Raw sequence files from cells targeted with gRNA 76 or gRNA 83 were aligned using the software program, DECODR, to display the indel pattern (listed as INDEL and %). […] Viability was measured via bioreduction of MTS to a formazan product. […] The average relative viability of cells in response to cisplatin is graphed above.
To assess CRISPR activity across various exons of NRF2, several gRNAs were designed along exon 3, 4 and 5 of the NRF2 gene in the A549 cell line. The A549 cells were transfected with each individually designed gRNA and cells were collected 72 hours after transfection. Genomic DNA was isolated, PCR amplified and Sanger sequenced. Editing activity was quantified using DECODR to deconvolute the indels present in at the cut site of each gRNA. […]

NRF2 = NRF2 western blot in Panc-1 cells; conditions: edited Panc-1 populations vs unedited, GAPDH loading control
Protocol: Panc-1 cell pellets were collected using a standard RIPA lysis buffer containing protease inhibitor cocktail. Total protein concentration of collected cells was then determined using BCA Protein Assay kit (Pierce, Rockford, IL, USA). The samples were boiled at 95° C. for 10 minutes and then underwent SDS-PAGE on a 10% Mini-PROTEAN TGX Stain-free Protein Gel (BioRad, Cat. 4568033) for 90 min at 100 V. The gel was then transferred to a nitrocellulose membrane using Trans-Blot Turbo Transfer Systems (BioRad, Hercules, CA, USA) with Trans-Blot Turbo RTA Mini 0.2 μm Nitrocellulose Transfer Kit (BioRad Cat. 1704158), mixed molecular weight program, 10 minutes. The blot was placed in 5% milk and blocked at room temperature on shaker for 2 hours. Incubation in primary NRF2 antibody was done overnight at 4° C. on shaker (1:1,000, Abcam ab62352). Membrane was then incubated at room temperature on shaker for 1 hour in NRF2 secondary (1:10,000, Abcam ab205718). The SuperSignal West Dura Extended Duration ECL (Pierce) kit was used on the LI-COR Odyssey FC to visualize bands. […]

Panc-1 cells = experiment: Cell viability with gemcitabine, CellTiter-Glo 2.0, Panc-1 cells; conditions: Panc-1 cells, in the absence of gemcitabine
Protocol: Wildtype and transfected Panc-1 cells were plated to 24 well plates (n=5) at 50,000 cells per well and placed in incubator for 24 hours. The cells were then treated with either Gemcitabine (Selleckchem, Cat. S1714) or DMSO (Thermo Fisher, Cat. D12345). Cells treated with Gemcitabine were treated at one of the following concentrations: 0 μM, 2.5 μM, 5 μM, 25 μM while cells treated with DMSO were treated at: 0%, 0.025%, 0.05%, or 0.25%. Cells remained in Gemcitabine or DMSO for 72 hours before being evaluated using CellTiter-Glo 2.0 Cell Viability Assay (Promega, Cat. G9241).
Since our long-term objective is to develop an effective genetic treatment that would augment standard care, we decided to examine the possibility that we could restore sensitivity to gemcitabine by genetic editing of NRF2 in gemcitabine resistant Panc1 cells. We are using gemcitabine as a selection system to determine if gene editing at some level, can help restore tumor cell killing. We established the kill curve of Panc1 unedited cells by gemcitabine under our standard reaction conditions to serve as a baseline. […] Again, after 72 hours, each cell population was exposed to gemcitabine for an additional 72 hours and thereafter cell viability of the treated and untreated cells was measured using the Cell Titer 2.0 viability assay (Promega, Madison, WI, USA). […]

“sg83: gRNA targeting exon 4 of NRF2; GTAGCCCCTGTTGATTTAGA CGG (guide GTAGCCCCTGTTGATTTAGACGG; listed as DNA, chemistry not given here)” was tested, and the “editing efficiency (comparison among gRNAs)” value (NRF2 gene) was “highest editing efficiency”, the NRF2 protein knock down (NRF2) was “significant knockdown of protein” and the cell killing (Panc-1 cells) was “approximately 40%”.
